Results taken from the Deep4Chem optical property database.
One block for each compound: values may come before it.

Assay: photoluminescence quantum yield (fraction); solvent given as SMILES

SMILES: OB(O)c1ccc(-c2ccc(N(c3ccccc3)c3ccccc3)cc2)cc1
photoluminescence quantum yield (in C1CCCCC1): 0.72 | photoluminescence quantum yield (in C1CCOC1): 0.65 | photoluminescence quantum yield (in CC#N): 0.68 | photoluminescence quantum yield (in CCO): 0.81 | photoluminescence quantum yield (in CCOC(C)=O): 0.66 | photoluminescence quantum yield (in CCOCC): 0.65 | photoluminescence quantum yield (in CO): 0.62

SMILES: c1ccc([B-]2(c3ccccc3)Oc3ccc4ccccc4c3-c3c4ccccc4cn[n+]32)cc1
photoluminescence quantum yield (in Cc1ccccc1): 0.15

photoluminescence quantum yield (in O): 0.001
SMILES: Cc1cc(N(C)C)ccc1C1=C2C=CC(=[N+](C)C)C=C2[Si](C)(C)c2cc(N(C)C)ccc21

photoluminescence quantum yield (in CCOC(C)=O): 0.95
SMILES: c1cc2ccc3cc4[nH]ccc4c4ccc(c1)c2c34

photoluminescence quantum yield (in C1COCCO1): 0.36
SMILES: COc1ccc(/C=C/C2=CC(/C=C/c3ccc(OC)cc3)=[N+]3C2=C(c2ccc(-c4ccc5ccccc5n4)s2)c2c(/C=C/c4ccc(OC)cc4)cc(/C=C/c4ccc(OC)cc4)n2[B-]3(F)F)cc1

photoluminescence quantum yield (in ClCCl): 0.81
SMILES: Nc1ccc2c(ccc3[n+]2[B-](F)(F)n2c-3cc3c4ccccc4c4ccccc4c32)c1

photoluminescence quantum yield (in ClCCl): 0.43
SMILES: Cc1ccc(C2=C(c3ccc(C)cc3)c3cccc4c3c(cc3nc5ccccc5nc34)O2)cc1

SMILES: COc1ccc(-c2nc(N)nc(C#N)c2C#N)cc1OC
photoluminescence quantum yield (in C1COCCO1): 0.0073 | photoluminescence quantum yield (in CC#N): 0.0893 | photoluminescence quantum yield (in CC(C)=O): 0.0272 | photoluminescence quantum yield (in CCO): 0.0105 | photoluminescence quantum yield (in CCOC(C)=O): 0.0185 | photoluminescence quantum yield (in CO): 0.0143

photoluminescence quantum yield (in ClCCl): 0.36
SMILES: c1ccc(C2c3ccccc3-c3cc4c(cc32)-c2ccccc2C4c2ccccc2)cc1 (stereo not given)

photoluminescence quantum yield (in O): 0.25
SMILES: N#Cc1c(N2CCCC2)cc(-c2ccccc2)c2c1-c1cccc3cccc-2c13

SMILES: c1ccc(-c2nc(-c3ccccc3)nc(-c3ccc(-n4c5ccccc5c5cc(-n6c7ccccc7c7ccccc76)ccc54)cc3)n2)cc1
photoluminescence quantum yield (in Cc1ccccc1): 0.72

photoluminescence quantum yield (in ClCCl): 0.00023
SMILES: COc1cc2c(cc1OC)C1=C[C@H](c3ccc(C)cc3)C3(C(C#N)=C(C#N)N1CC2)c1cc(Br)ccc1-c1ccc(Br)cc13

photoluminescence quantum yield (in CO): 0.002
SMILES: Clc1ccc(/C=C(\c2ccccc2)c2nc3ccccc3o2)cc1

photoluminescence quantum yield (in CC1CCCCC1): 0.41 | photoluminescence quantum yield (in CC#N): 0.04
SMILES: C(=C\c1c2ccccc2cc2ccccc12)/c1ccc2ccccc2n1

photoluminescence quantum yield (in ClCCl): 0.99
SMILES: C1=Cc2ccc(N(c3ccccc3)c3ccccc3)cc2Cc2cc(N(c3ccccc3)c3ccccc3)ccc21

photoluminescence quantum yield (in CN(C)C=O): 0.26
SMILES: CC(=O)NC(Cc1ccc(O)cc1)C(=O)O[Si]1(OC(=O)C(Cc2ccc(O)cc2)NC(C)=O)n2c3c4ccccc4c2/N=C2N=C(/N=c4/c5ccccc5/c(n41)=N/C1=NC(=N\3)/c3ccccc31)c1ccccc1\2 (stereo not given)

photoluminescence quantum yield (in ClC(Cl)Cl): 0.76
SMILES: CCCN1c2ccccc2Sc2cc(/C=C\c3cc(=O)oc4ccc(C)cc34)ccc21

photoluminescence quantum yield (in C1CCCCC1): 0.06 | photoluminescence quantum yield (in CC#N): 0.02 | photoluminescence quantum yield (in CCO): 0.026 | photoluminescence quantum yield (in CCOC(C)=O): 0.034 | photoluminescence quantum yield (in CO): 0.025 | photoluminescence quantum yield (in OCC(F)(F)F): 0.022
SMILES: Cc1ccc(C2=C3C=C(I)C=[N+]3[B-](F)(F)n3c2cc(I)c3I)cc1

photoluminescence quantum yield (in ClCCl): 0.00075
SMILES: CCOC(=O)C1=C(C(=O)OCC)C2(c3ccccc3-c3c(Br)cc(Br)cc32)C2(/C=C/c3ccc(Cl)cc3)c3cc(OC)c(OC)cc3CCN12 (stereo not given)

SMILES: Cc1ccc(-n2c(-c3ccccc3NS(=O)(=O)c3ccc(C)cc3)nc3c4ccccc4c4ccccc4c32)cc1
photoluminescence quantum yield (in Cc1ccccc1): 0.007

photoluminescence quantum yield (in ClCCl): 0.48
SMILES: C(#Cc1nc(C#Cc2cccs2)c(C#Cc2cccs2)c(C#Cc2cccs2)c1C#Cc1cccs1)c1cccs1

SMILES: COc1ccc2n1[B-](F)(F)[N+]1=C(c3ccccc3)C=CC1=C2c1ccc(C)cc1
photoluminescence quantum yield (in C1CCCCC1): 0.28 | photoluminescence quantum yield (in C1CCOC1): 0.3 | photoluminescence quantum yield (in C1COCCO1): 0.36 | photoluminescence quantum yield (in CCOC(C)=O): 0.28 | photoluminescence quantum yield (in CO): 0.23 | photoluminescence quantum yield (in Cc1ccccc1): 0.51 | photoluminescence quantum yield (in ClC(Cl)Cl): 0.38

photoluminescence quantum yield (in C1CCCCC1): 0.0095 | photoluminescence quantum yield (in CC#N): 0.0012 | photoluminescence quantum yield (in CCO): 0
SMILES: COc1cc(OC)c2c(c1)C(=O)c1ccc(OC)cc1-2

SMILES: CCCN1/C(=C\c2c(-c3ccc(N(C)C)cc3)c(=O)c2=O)C=Cc2ccccc21
photoluminescence quantum yield (in C1CCCCC1): 0.0262 | photoluminescence quantum yield (in Cc1ccccc1): 0.0201 | photoluminescence quantum yield (in ClCCl): 0.001

SMILES: CN(C)c1ccc(C(=O)Nc2ccc(F)cc2)cc1
photoluminescence quantum yield (in C1CCCCC1): 0.0011 | photoluminescence quantum yield (in C1CCOC1): 0.0053 | photoluminescence quantum yield (in CC#N): 0.0104 | photoluminescence quantum yield (in CCOCC): 0.0034

SMILES: O=Cc1cc(O)ccc1O
photoluminescence quantum yield (in C1CCOC1): 0.0001 | photoluminescence quantum yield (in C1COCCO1): 0.0001 | photoluminescence quantum yield (in CC#N): 0.0001 | photoluminescence quantum yield (in CC(C)=O): 0.01 | photoluminescence quantum yield (in CCCO): 0.03 | photoluminescence quantum yield (in CCO): 0.04 | photoluminescence quantum yield (in CN(C)C=O): 0.06 | photoluminescence quantum yield (in CN(C)P(=O)(N(C)C)N(C)C): 0.14 | photoluminescence quantum yield (in CNC=O): 0.14 | photoluminescence quantum yield (in CO): 0.0001 | photoluminescence quantum yield (in CS(C)=O): 0.17 | photoluminescence quantum yield (in NC=O): 0.07

photoluminescence quantum yield (in CC#N): 0.02 | photoluminescence quantum yield (in CCO): 0.09 | photoluminescence quantum yield (in CN(C)C=O): 0.1 | photoluminescence quantum yield (in CO): 0.3 | photoluminescence quantum yield (in CS(C)=O): 0.17 | photoluminescence quantum yield (in ClC(Cl)Cl): 0.48 | photoluminescence quantum yield (in ClCCl): 0.25
SMILES: COC(=O)c1cc(=O)n(C)c2cc(-c3cc4c5c(c3)CCCN5CCC4)sc12

SMILES: Cc1ccc(N(c2ccc(C)cc2)c2c3ccccc3c(N(c3ccc(C)cc3)c3ccc(C)cc3)c3ccccc23)cc1
photoluminescence quantum yield (in Cc1ccccc1): 0.95

SMILES: Cc1ccc(/C(C#N)=C/c2cc(/C=C(\C#N)c3ccc(C)cc3)c(-c3ccc(N(c4ccccc4)c4ccccc4)cc3)cc2-c2ccc(N(c3ccccc3)c3ccccc3)cc2)cc1
photoluminescence quantum yield (in C1CCCCC1): 0.093 | photoluminescence quantum yield (in C1CCOC1): 0.045 | photoluminescence quantum yield (in CCCCCC): 0.121 | photoluminescence quantum yield (in CCOC(C)=O): 0.049 | photoluminescence quantum yield (in Cc1ccccc1): 0.06 | photoluminescence quantum yield (in ClC(Cl)Cl): 0.048 | photoluminescence quantum yield (in ClCCl): 0.028

photoluminescence quantum yield (in ClC(Cl)Cl): 0.03
SMILES: CCCCCCCCn1c(=O)c2cc3c(-c4ccc(N(c5ccccc5)c5ccccc5)cc4)c4cc5c(=O)n(CCCCCCCC)c(=O)c5cc4c(-c4ccc(N(c5ccccc5)c5ccccc5)cc4)c3cc2c1=O

photoluminescence quantum yield (in ClCCl): 0.87
SMILES: COc1ccccc1C1=[N+]2C(=C(c3ccccc3)c3c4c(c(-c5ccccc5OC)n3[B-]2(F)F)C2C=CC4CC2)C2=C1C1C=CC2CC1 (stereo not given)

SMILES: CC1(C)c2ccccc2N(c2ccc(-c3cc(C#N)c(C#N)cc3-c3ccc(N4c5ccccc5C(C)(C)c5ccccc54)cc3)cc2)c2ccccc21
photoluminescence quantum yield (in Cc1ccccc1): 0.59 | photoluminescence quantum yield (in c1cc(-c2cccc(-n3c4ccccc4c4ccccc43)c2)cc(-n2c3ccccc3c3ccccc32)c1): 0.86

photoluminescence quantum yield (in CC#N): 0.003 | photoluminescence quantum yield (in CO): 0.003 | photoluminescence quantum yield (in O): 0.003
SMILES: CSc1ccc2c(c1)N(CCCN(C)C)c1ccccc1S2

photoluminescence quantum yield (in C1COCCO1): 0.87
SMILES: CCC12C(=C3C(=C4c5ccc(-c6ccccc6)cc5S(=O)(=O)C41CC)C(F)(F)C(F)(F)C3(F)F)c1ccc(-c3ccccc3)cc1S2(=O)=O (stereo not given)

SMILES: c1ccc(-c2nc(-c3ccccc3)nc(-c3ccc(-n4c5ccc(-n6c7ccccc7c7ccccc76)cc5c5cc(-n6c7ccccc7c7ccccc76)ccc54)cc3)n2)cc1
photoluminescence quantum yield (in Cc1ccccc1): 0.57

photoluminescence quantum yield (in ClC(Cl)Cl): 0.13
SMILES: CCCCCCc1ccc(-n2c3c4cccc(OC)c4nc(-c4ccc(C#N)cc4)c3c3c2c2c(-c4ccc(C#N)cc4)nc4c(OC)cccc4c2n3-c2ccc(CCCCCC)cc2)cc1

photoluminescence quantum yield (in O): 0.13
SMILES: [NH3+]C(Cc1ccc(O)cc1)C(=O)[O-] (stereo not given)

photoluminescence quantum yield (in ClCCl): 0.9
SMILES: N#Cc1ccc(-n2c(-c3ccc(-c4ccc(-c5nc6c7ccccc7c7ccccc7c6n5-c5ccc(C#N)c6ccccc56)c5ccccc45)c4ccccc34)nc3c4ccccc4c4ccccc4c32)c2ccccc12

photoluminescence quantum yield (in C1CCOC1): 0.08
SMILES: c1cc2ccc1-c1ccc(cc1)-c1ccc([se]1)-c1ccc(cc1)-c1ccc(cc1)-c1ccc([se]1)-c1ccc(cc1)-c1ccc(cc1)-c1ccc-2[se]1

photoluminescence quantum yield (in C1CCOC1): 0.85
SMILES: FC(F)(F)C(F)(F)C(F)(F)C1=NC2=C(c3ccccc3)C=C3c4cc(-c5ccccc5)c5nc(C(F)(F)C(F)(F)C(F)(F)F)nc6c(-c7ccccc7)cc(c4c56)=C4C=C(c5ccccc5)C(=N1)C2C34 (stereo not given)

photoluminescence quantum yield (in CCO): 0.27 | photoluminescence quantum yield (in O): 0.18
SMILES: CC/[NH+]=c1\cc2oc3cc(NCCN)c4ccccc4c3nc-2cc1C

SMILES: CN(C)c1ccc(C2=Nc3sc4cc(F)ccc4[n+]3[B-](F)(F)O2)cc1
photoluminescence quantum yield (in C1CCOC1): 0.72 | photoluminescence quantum yield (in CC#N): 0.13 | photoluminescence quantum yield (in CC(C)=O): 0.23 | photoluminescence quantum yield (in Cc1ccccc1): 0.85 | photoluminescence quantum yield (in ClCCl): 0.74

photoluminescence quantum yield (in C1CCCCC1): 0.78 | photoluminescence quantum yield (in C1COCCO1): 0.89 | photoluminescence quantum yield (in CC#N): 0.79 | photoluminescence quantum yield (in CCO): 0.86 | photoluminescence quantum yield (in CS(C)=O): 0.71 | photoluminescence quantum yield (in ClC(Cl)Cl): 0.77 | photoluminescence quantum yield (in ClCCl): 0.73
SMILES: COc1ccc(C#Cc2ccc(C#Cc3ccc(P(=O)(c4ccc(C#Cc5ccc(C#Cc6ccc(OC)cc6)cc5)cc4)c4ccc(C#Cc5ccc(C#Cc6ccc(OC)cc6)cc5)cc4)cc3)cc2)cc1

photoluminescence quantum yield (in ClCCl): 0.109
SMILES: COc1ccc2c(c1)cc(C)c1c3ccccc3[nH]c21

photoluminescence quantum yield (in ClCCl): 0.75
SMILES: CCN(CC)c1ccc2cc(-c3ccc(-c4ccc(-c5cc6ccc(N(CC)CC)cc6oc5=O)cc4)cc3)c(=O)oc2c1

photoluminescence quantum yield (in C1CCOC1): 0.268
SMILES: O=C(c1ccc(/C(=C(/c2ccccc2)c2ccc(C(=O)c3ccc(-n4c5ccccc5c5ccccc54)cc3)cc2)c2ccccc2)cc1)c1ccc(-n2c3ccccc3c3ccccc32)cc1

photoluminescence quantum yield (in ClCCl): 0.78
SMILES: CCCCn1c(-c2ccc(-c3nnc(-c4ccc(-c5nc6c7ccccc7c7ccccc7c6n5CCCC)cc4)o3)cc2)nc2c3ccccc3c3ccccc3c21

photoluminescence quantum yield (in CCO): 0.16
SMILES: CCOC(=O)c1cc(C(=O)OCC)c2cc(O)ccc2n1

SMILES: CN(C)c1ccc(/C=C/c2ccccn2)cc1
photoluminescence quantum yield (in C1CCCCC1): 0.017 | photoluminescence quantum yield (in C1CCOC1): 0.042 | photoluminescence quantum yield (in C1COCCO1): 0.031 | photoluminescence quantum yield (in CC#N): 0.048 | photoluminescence quantum yield (in CC(C)O): 0.024 | photoluminescence quantum yield (in CCCCCC): 0.016 | photoluminescence quantum yield (in CCCCCCC): 0.017 | photoluminescence quantum yield (in CCCCO): 0.026 | photoluminescence quantum yield (in CCO): 0.032 | photoluminescence quantum yield (in CCOC(C)=O): 0.03 | photoluminescence quantum yield (in CCOCC): 0.022 | photoluminescence quantum yield (in CN(C)C=O): 0.051 | photoluminescence quantum yield (in CO): 0.019 | photoluminescence quantum yield (in CS(C)=O): 0.054 | photoluminescence quantum yield (in O): 0.015
